Reference: US20210292410A1, “TREATMENT PARADIGM FOR AN ANTI-CD19 ANTIBODY AND VENETOCLAX COMBINATION TREATMENT” (MorphoSys AG, priority 2017, published 2021)

Legend:
CYP17 [1] = assay: Endocrine panel (progesterone) in ER+ breast cancer patients; format: in vivo, human; details: vs. patients treated with abiraterone and prednisone (Abi/Pred), FIG. 20
Experimental: (§1) Subjects that fulfill the Inclusion Criteria captured in Table 4 were administered seviteronel (600 mg for male subjects, 4×150 mg tablets; 450 mg for female subjects, 3×150 mg tablets) once daily until any of the criteria in Table 2 are met. Table 5 captures the clinical screening data and screening schedule for the various screens for each of the male subjects.
as §1, with “tablets) and dexamethasone (0.5 mg)” for “tablets)”
(§2) Blood samples were collected for evaluation of steroid hormone changes as a pharmacodynamics indicator of CYP17 inhibition over time (e.g., DHEA, DHEA-S, androstenedione, testosterone, cortisol, corticosterone, progesterone, pregnenolone, estradiol, estrone and ACTH).

CYP17 [2] = assay: Endocrine panel in prostate cancer patients treated with seviteronel or seviteronel and dexamethasone; format: in vivo, human; details: seviteronel 600 mg once daily, FIG. 7
Experimental: (§3) Males that fulfill the Inclusion Criteria captured in Table 1 were administered seviteronel (600 mg; 4×150 mg tablets) once daily until any of the criteria in Table 2 are met. Table 3 captures the clinical screening data and screening schedule for the various screens for each of the male subjects.
as §3, with “tablets) and dexamethasone (0.5 mg)” for “tablets)”
as §2

**Q.** With `CC(C)[C@](O)(c1ccc2cc(OC(F)F)c(OC(F)F)cc2c1)c1c[nH]nn1` [SEVI] as the molecule, how does the increase in progesterone (CYP17 [1]) read?
**A.** lack of clinically relevant increases in progesterone

**Q.** And the “endocrine profile: "up-stream" steroids” value (CYP17 [2])?
**A.** limited increase

**Q.** And the “endocrine profile: ACTH” value (CYP17 [2])?
**A.** modest ACTH increase

**Q.** What about the “endocrine profile: androgen” value (CYP17 [2]) of the same molecule?
**A.** modest androgen decline

**Q.** And the “endocrine profile: cortisol” value (CYP17 [2])?
**A.** modest cortisol decrease
